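Abbreviation: GI50, concentration required for 50% inhibition of growth. TGI: total growth inhibition.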
Experiments:
Assay in all cases: NCI-60 cell line screen, 384-well format
[1] = system: IGROV1 ovarian
[2] = system: MDA-MB-435 melanoma
[3] = system: MALME-3M melanoma
[4] = system: OVCAR-3 ovarian
[5] = system: HS 578T breast
[6] = system: OVCAR-5 ovarian
[7] = system: CAKI-1 renal
[8] = system: SNB-19 CNS
[9] = system: EKVX NSCLC
[10] = system: SK-MEL-5 melanoma
[11] = system: HOP-62 NSCLC
[12] = system: T-47D breast
[13] = system: CCRF-CEM leukemia
[14] = system: COLO 205 colon
[15] = system: HT29 colon
[16] = system: SN12C renal
[17] = system: SK-MEL-28 melanoma
[18] = system: BT-549 breast
[19] = system: NCI-H460 NSCLC
[20] = system: K-562 leukemia
[21] = system: HCT-116 colon
[22] = system: NCI-H23 lung
[23] = system: OVCAR-8 ovarian
[24] = system: MOLT-4 leukemia
[25] = system: A498 renal
[26] = system: SK-MEL-2 melanoma
[27] = system: TK-10 renal
[28] = system: RPMI-8226 leukemia
[29] = system: HCC-2998 colon
[30] = system: RXF 393 renal
[31] = system: SF-539 CNS
[32] = system: MDA-MB-468 breast
[33] = system: U251 glioblastoma
[34] = system: HOP-92 NSCLC
[35] = system: ACHN renal
[36] = system: SF-268 CNS
[37] = system: NCI-H522 lung
[38] = system: LOX IMVI melanoma
[39] = system: MDA-MB-231 breast
[40] = system: SF-295 CNS
[41] = system: A549 NSCLC
[42] = system: NCI-H226 lung
[43] = system: SW-620 colon
[44] = system: OVCAR-4 ovarian
[45] = system: HL-60(TB) leukemia
[46] = system: PC-3 prostate
[47] = system: NCI/ADR-RES ovarian
[48] = system: UO-31 renal
[49] = system: SNB-75 CNS
[50] = system: 786-0 renal
[51] = system: UACC-257 melanoma
[52] = system: KM12 colon
[53] = system: DU-145 prostate
[54] = system: SK-OV-3 ovarian
[55] = system: M14 melanoma
[56] = system: HCT-15 colon
[57] = system: MCF7 breast
[58] = system: UACC-62 melanoma
[59] = system: NCI-H322M lung

## Cc1c(NC(=O)c2cc(C(N)=O)nc3cc(F)ccc23)c(C(F)(F)F)nn1Cc1ccc(C#N)cc1
[1]
  GI50: 1.69 µM
  TGI: 8.2 µM
[2]
  GI50: 17.1 µM
  TGI: > 100 µM
[3]
  GI50: 2.94 µM
  TGI: 16.4 µM
[4]
  GI50: 0.0509 µM
  TGI: 1.19 µM
[5]
  GI50: 0.022 µM
  TGI: 0.123 µM
[6]
  GI50: 2.81 µM
  TGI: 9.74 µM
[7]
  GI50: 8.33 µM
  TGI: 37.4 µM
[8]
  GI50: 1.81 µM
  TGI: 12.3 µM
[9]
  GI50: 16.1 µM
  TGI: 66.3 µM
[10]
  GI50: 12.3 µM
  TGI: 54.8 µM
[11]
  GI50: 3.3 µM
  TGI: 16.5 µM
[12]
  GI50: 0.151 µM
  TGI: 11.5 µM
[13]
  GI50: 0.0337 µM
  TGI: 10.3 µM
[14]
  GI50: 0.102 µM
  TGI: 1.33 µM
[15]
  GI50: 0.134 µM
  TGI: 1.31 µM
[16]
  GI50: 0.237 µM
  TGI: 12.1 µM
[17]
  GI50: 18.3 µM
  TGI: > 100 µM
[18]
  GI50: 0.605 µM
  TGI: 12.1 µM
[19]
  GI50: 2.87 µM
  TGI: 16.3 µM
[20]
  GI50: 5.92 µM
  TGI: 22.3 µM
[21]
  GI50: 1.97 µM
  TGI: 12.2 µM
[22]
  GI50: 2.93 µM
  TGI: 16.5 µM
[23]
  GI50: 1.62 µM
  TGI: 5.83 µM
[24]
  GI50: 0.11 µM
  TGI: 2.02 µM
[25]
  GI50: 0.742 µM
  TGI: 15.4 µM
[26]
  GI50: 17.4 µM
  TGI: 35.5 µM
[27]
  GI50: 1.37 µM
  TGI: 5.06 µM
[28]
  TGI: 0.163 µM
[29]
  GI50: 0.0956 µM
  TGI: 1.69 µM
[30]
  GI50: 0.693 µM
  TGI: 5.32 µM
[31]
  GI50: 5.05 µM
  TGI: 27.2 µM
[32]
  GI50: 2.66 µM
  TGI: 13.4 µM
[33]
  GI50: 0.974 µM
  TGI: 12.9 µM
[34]
  GI50: 0.633 µM
  TGI: 7.03 µM
[35]
  GI50: 2.54 µM
  TGI: 27.1 µM
[36]
  GI50: 6.04 µM
  TGI: 28.2 µM
[37]
  GI50: 4.54 µM
  TGI: 27.8 µM
[38]
  GI50: 1.67 µM
  TGI: 12.8 µM
[39]
  GI50: 5.69 µM
  TGI: 41.6 µM
[40]
  GI50: 1.07 µM
  TGI: 5.5 µM
[41]
  GI50: 2 µM
  TGI: 15.6 µM
[42]
  GI50: 0.0842 µM
  TGI: 8.1 µM
[43]
  GI50: 4.76 µM
  TGI: 33.9 µM
[44]
  GI50: 0.0803 µM
  TGI: 1.7 µM
[45]
  GI50: 1.06 µM
  TGI: 2.38 µM
[46]
  GI50: 0.0532 µM
  TGI: 0.276 µM
[47]
  GI50: 1.35 µM
  TGI: 2.87 µM
[48]
  GI50: 0.208 µM
  TGI: 9.83 µM
[49]
  GI50: 12.2 µM
  TGI: 27 µM
[50]
  GI50: 0.319 µM
  TGI: 12.3 µM
[51]
  GI50: 33.4 µM
  TGI: > 100 µM
[52]
  GI50: 0.142 µM
  TGI: 1.9 µM
[53]
  GI50: 0.0752 µM
  TGI: 2.43 µM
[54]
  GI50: 0.132 µM
  TGI: 0.313 µM
[55]
  GI50: 11.1 µM
  TGI: 24.9 µM
[56]
  GI50: 14.1 µM
  TGI: > 100 µM
[57]
  GI50: 0.198 µM
  TGI: 1.22 µM
[58]
  GI50: 2.78 µM
  TGI: 15.4 µM
[59]
  GI50: 1.71 µM
  TGI: 12.9 µM

Source: PubChem BioAssay (NCI)
